In ChEMBL document CHEMBL1147893, “Carbonic anhydrase inhibitors: the X-ray crystal structure of the adduct of N-hydroxysulfamide with isozyme II explains why this new zinc binding function is effective in the design of potent inhibitors” (Bioorg Med Chem Lett, 2007):

What was measured:
[1] = target: Carbonic anhydrase 2 (Homo sapiens) (UniProt P00918)
Description: Inhibition of human recombinant carbonic anhydrase 2

[2] = target: Carbonic anhydrase 1 (Homo sapiens) (UniProt P00915)
Description: Inhibition of human recombinant carbonic anhydrase 1

[3] = target: Carbonic anhydrase 9 (Homo sapiens) (UniProt Q16790)
Description: Inhibition of human recombinant carbonic anhydrase 9 catalytic domain by CO2 hydrase method

[4] = target: Carbonic anhydrase 12 (Homo sapiens) (UniProt O43570)
Carbonic anhydrase 12 (Homo sapiens), sequence (O43570 whole entry): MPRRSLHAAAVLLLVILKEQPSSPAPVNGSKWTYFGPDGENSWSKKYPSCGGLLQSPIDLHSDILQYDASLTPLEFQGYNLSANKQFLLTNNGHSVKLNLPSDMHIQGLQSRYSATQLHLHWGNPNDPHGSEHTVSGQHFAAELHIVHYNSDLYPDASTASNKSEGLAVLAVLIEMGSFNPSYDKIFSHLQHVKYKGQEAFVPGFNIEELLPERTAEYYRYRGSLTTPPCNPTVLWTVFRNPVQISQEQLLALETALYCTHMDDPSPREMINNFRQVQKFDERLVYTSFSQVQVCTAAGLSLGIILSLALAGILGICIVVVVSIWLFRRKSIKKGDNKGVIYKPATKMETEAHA
Description: Inhibition of human recombinant carbonic anhydrase 12 catalytic domain by CO2 hydrase method

Carbonic anhydrase 1 (Homo sapiens), sequence (P00915 2-261 limits assumed): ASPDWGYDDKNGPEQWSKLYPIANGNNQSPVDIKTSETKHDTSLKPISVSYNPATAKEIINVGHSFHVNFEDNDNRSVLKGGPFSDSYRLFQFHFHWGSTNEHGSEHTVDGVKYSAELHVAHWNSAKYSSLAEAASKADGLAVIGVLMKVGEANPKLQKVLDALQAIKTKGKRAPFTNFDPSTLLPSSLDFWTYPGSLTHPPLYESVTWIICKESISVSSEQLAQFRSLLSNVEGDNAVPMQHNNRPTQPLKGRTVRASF

Structure (SMILES) | Kinact [1] | Kinact [2] | Kinact [3] | Kinact [4]
NS(=O)(=O)O | 0.39 10^6nM | 0.21 10^5nM | 9.2 10^3nM | 10.7 10^3nM
O=S(=O)([O-])[O-].[Na+].[Na+] | > 300 10^6nM | 6.3 10^6nM | > 300 10^6nM | 7.7 10^5nM
